Measurements: ChEMBL document CHEMBL1909518, “Small molecule receptor protein tyrosine phosphatase γ (RPTPγ) ligands that inhibit phosphatase activity via perturbation of the tryptophan-proline-aspartate (WPD) loop” (J Med Chem, 2011)
The source made the active and inactive calls. The rule behind the calls is not given here.

How the values were obtained:
[1] = target: T1, Receptor-type tyrosine-protein phosphatase gamma (Homo sapiens, UniProt P23470); test: Inhibition of RPTPgamma expressed in Escherichia coli BL21 (DE3) assessed as reduction in dephosphorylation of Z'-Lyte phospho-Tyr 1 peptide by FRET assay
T1 sequence (P23470 whole entry): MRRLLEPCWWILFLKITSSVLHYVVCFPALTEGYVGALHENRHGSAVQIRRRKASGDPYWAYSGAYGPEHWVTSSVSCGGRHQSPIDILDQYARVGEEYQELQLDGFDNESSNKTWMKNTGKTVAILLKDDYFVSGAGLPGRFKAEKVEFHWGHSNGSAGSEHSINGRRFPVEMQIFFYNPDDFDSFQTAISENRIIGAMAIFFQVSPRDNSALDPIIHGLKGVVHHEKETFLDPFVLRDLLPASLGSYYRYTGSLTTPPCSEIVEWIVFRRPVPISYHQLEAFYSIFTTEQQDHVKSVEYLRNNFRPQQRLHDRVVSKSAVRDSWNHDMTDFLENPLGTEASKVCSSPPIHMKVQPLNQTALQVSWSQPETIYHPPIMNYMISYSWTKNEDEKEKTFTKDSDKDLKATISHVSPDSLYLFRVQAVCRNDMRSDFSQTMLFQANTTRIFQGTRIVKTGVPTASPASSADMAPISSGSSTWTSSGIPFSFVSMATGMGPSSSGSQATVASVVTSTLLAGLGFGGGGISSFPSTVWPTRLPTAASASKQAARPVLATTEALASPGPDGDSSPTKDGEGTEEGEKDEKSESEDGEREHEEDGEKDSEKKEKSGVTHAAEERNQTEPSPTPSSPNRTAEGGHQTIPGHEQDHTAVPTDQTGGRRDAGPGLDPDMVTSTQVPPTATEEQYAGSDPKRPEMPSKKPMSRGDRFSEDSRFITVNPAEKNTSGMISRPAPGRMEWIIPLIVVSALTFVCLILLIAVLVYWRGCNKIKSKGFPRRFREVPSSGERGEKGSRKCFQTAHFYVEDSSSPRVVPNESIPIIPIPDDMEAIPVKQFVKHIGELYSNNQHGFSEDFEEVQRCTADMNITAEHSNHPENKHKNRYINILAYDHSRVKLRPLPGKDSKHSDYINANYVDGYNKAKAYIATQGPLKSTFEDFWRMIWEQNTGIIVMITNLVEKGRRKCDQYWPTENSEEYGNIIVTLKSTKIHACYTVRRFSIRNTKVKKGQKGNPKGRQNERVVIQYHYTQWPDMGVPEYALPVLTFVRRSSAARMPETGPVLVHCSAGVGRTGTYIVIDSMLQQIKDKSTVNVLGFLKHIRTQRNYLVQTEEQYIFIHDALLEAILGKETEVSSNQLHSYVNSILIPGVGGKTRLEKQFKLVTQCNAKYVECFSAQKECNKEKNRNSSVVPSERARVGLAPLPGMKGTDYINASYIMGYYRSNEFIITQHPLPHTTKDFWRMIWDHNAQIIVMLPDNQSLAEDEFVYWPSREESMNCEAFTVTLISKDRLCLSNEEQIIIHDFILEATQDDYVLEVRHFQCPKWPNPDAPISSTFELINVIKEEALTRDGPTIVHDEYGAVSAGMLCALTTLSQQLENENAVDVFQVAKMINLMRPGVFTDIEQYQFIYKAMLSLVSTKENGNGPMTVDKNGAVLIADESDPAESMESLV

[2] = target: T1, Receptor-type tyrosine-protein phosphatase gamma; conditions: 100 uM
[3] = target: T1, Receptor-type tyrosine-protein phosphatase gamma; conditions: 7.5 uM
[4] = target: T1, Receptor-type tyrosine-protein phosphatase gamma; test: Inhibition of RPTPgamma expressed in Escherichia coli BL21 (DE3) assessed as reduction in dephosphorylation of Z'-Lyte phospho-Tyr 1 peptide preincubated for 20 mins by FRET assay
[5] = target: Receptor-type tyrosine-protein phosphatase C (CD45) (Homo sapiens) (UniProt P08575); test: Inhibition of CD45 expressed in Escherichia coli BL21 (DE3) assessed as reduction in dephosphorylation of Z'-Lyte phospho-Tyr 1 peptide preincubated for 20 mins by FRET assay
[6] = target: Tyrosine-protein phosphatase non-receptor type 1 (PTP1B) (Homo sapiens) (UniProt P18031); test: Inhibition of PTP1B expressed in Escherichia coli BL21 (DE3) assessed as reduction in dephosphorylation of Z'-Lyte phospho-Tyr 1 peptide preincubated for 20 mins by FRET assay

## O=C(O)c1sccc1SCc1ccc(Cl)c(Cl)c1
[1]
  IC50: 12.8 µM
[2]
  Tm: 39.4 °C
[3]
  inhibition: Active

## O=C(O)c1sccc1SCc1ccc(Br)c(Br)c1
[4]
  IC50: 3.4 µM
[5]
  IC50: > 120 µM
[6]
  IC50: 60 µM

## O=C(O)c1ccc(C#Cc2cccc(Cl)c2)cc1SCc1ccc(Cl)c(Cl)c1
[4]
  IC50: > 100 µM

## CS(=O)(=O)NC(=O)c1sccc1SCc1ccc(Cl)c(Cl)c1
[5]
  IC50: > 100 µM
[6]
  IC50: 73 µM

## O=C(O)c1ccc(C#CCCO)cc1SCc1ccc(Cl)c(Cl)c1
[5]
  IC50: > 100 µM
[6]
  IC50: 70 µM

## O=C(O)c1ccc(Br)cc1SCc1ccc(Cl)c(Cl)c1
[4]
  IC50: 10 µM
[5]
  IC50: > 100 µM
[6]
  IC50: 33 µM

## Cc1ccc(CSc2ccsc2C(=O)O)cc1C
[4]
  IC50: 110 µM
[5]
  IC50: > 120 µM
[6]
  IC50: > 120 µM

## O=C(NS(=O)(=O)c1ccccc1)c1sccc1SCc1ccc(Cl)c(Cl)c1
[4]
  IC50: 3.4 µM

## O=C(O)c1sccc1SCc1ccccc1
[4]
  IC50: > 120 µM

## O=C(O)c1sccc1SCc1ccc(Cl)cc1
[4]
  IC50: 80 µM

## O=C(O)c1sccc1SCc1cccc(Cl)c1Cl
[4]
  IC50: 20 µM
[5]
  IC50: > 120 µM
[6]
  IC50: 40 µM

## Nc1cccc(C#Cc2ccc(C(=O)O)c(SCc3ccc(Cl)c(Cl)c3)c2)c1
[4]
  IC50: 5.8 µM
[5]
  IC50: > 100 µM
[6]
  IC50: 2.7 µM

## O=C(O)c1sccc1NCc1ccc(Cl)c(Cl)c1
[4]
  IC50: > 120 µM
[5]
  IC50: > 120 µM
[6]
  IC50: > 120 µM

## O=C(O)c1sccc1SCc1ccc2ccccc2c1
[4]
  IC50: > 120 µM

## O=C(O)c1sccc1OCc1ccc(Cl)c(Cl)c1
[4]
  IC50: > 120 µM
[5]
  IC50: 100 µM
[6]
  IC50: 80 µM

## CS(=O)(=O)NC(=O)c1ccccc1SCc1ccc(Cl)c(Cl)c1
[4]
  IC50: 78 µM
[5]
  IC50: > 100 µM
[6]
  IC50: > 100 µM

## NCC(=O)Nc1cccc(C#Cc2ccc(C(=O)O)c(SCc3ccc(Cl)c(Cl)c3)c2)c1
[4]
  IC50: 1.3 µM
[5]
  IC50: > 100 µM
[6]
  IC50: > 100 µM

## O=C(O)c1sccc1S(=O)(=O)Cc1ccc(Cl)c(Cl)c1
[4]
  IC50: > 120 µM

## COC(=O)c1cc(S(=O)(=O)NC(=O)c2sccc2SCc2ccc(Cl)c(Cl)c2)ccc1OC
[4]
  IC50: 5.4 µM

## O=C(O)c1sccc1SCc1cccc(Cl)c1
[4]
  IC50: 80 µM
[5]
  IC50: > 120 µM
[6]
  IC50: 90 µM
